{
  "source": "patent US6914045B2",
  "about": "“Glycopeptide antibiotics” (Wyeth Holdings Corporation, priority 2001, dated 2005)",
  "experiment_in_all_cases": "in vitro antibacterial evaluation, MIC by broth dilution",
  "assay_type_in_all_cases": "cell-based",
  "key": {"Escherichia coli": {"test_system": "Escherichia coli", "details": "18 hours at 35° C.", "outline": "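MIC is the lowest antibiotic concentration (tested 64-0.06 μg/mL) preventing growth of a 5×10^5 CFU/mL inoculum. Determined by broth dilution in Mueller-Hinton II medium following NCCLS standard M7-A2.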"}, "Staphylococcus sp.": {"test_system": "Staphylococcus sp.", "details": "broth dilution, 18 hours at 35° C.", "description": "(§1) Methods for in vitro Antibacterial Evaluation (Table 1)\n(§2) The minimum inhibitory concentration (MIC), the lowest concentration of the antibiotic which inhibits growth of the test organism, is determined by the broth dilution method using Muller-Hinton II […] (Baltimore Biological Laboratories) following the recommendations of the National Committee for Clinical Laboratory Standards [Methods for dilution antimicrobial susceptibility tests for bacteria that grow aerobically, approved standard M7-A2, National Committee for Clinical Laboratory Standards, Villanova, Pa.].\n(§3) An inoculum level of 5×10^5 CFU/mL, and a range of antibiotic concentrations (64-0.06 μg/mL) is used. […] The test organisms include a spectrum of Gram-positive bacteria comprised of Staphylococcus sp., Streptococcus sp. and Enterococcus sp. These organisms include recent clinical isolates that are resistant to methicillin, penicillin and/or vancomycin."}, "Enterococcus sp.": {"test_system": "Enterococcus sp.", "details": "broth dilution, 18 hours at 35° C.", "description": "as §1, §2, §3"}, "Streptococcus sp.": {"test_system": "Streptococcus sp.", "details": "broth dilution, 18 hours at 35° C.", "description": "as §1, §2, §3"}},
  "data": [
    {"compound": "CC(C)=CCCC(C)=CCN=C1NCC(C(O)C2NC(=O)C(C(O)C3CNC(=N)N3)NC(=O)C(Cc3ccc(OC4OC(CO)C(OC5OC6COC7(OC6C(O)C5O)C5CC6CC(C5)CC7C6)C(O)C4O)cc3)NC(=O)C(C(C)c3ccccc3)NC(=O)CNC(=O)C(CO)NC2=O)N1C1OC(CO)C(O)C(O)C1O", "note": "(stereo not drawn) [Example 82]", "values": [
      {"measurement": "MIC Escherichia coli (ATCC 25922)", "setting": "Escherichia coli", "result": ">128", "unit": "µg/mL"},
      {"measurement": "MIC Escherichia coli (GC 4559)", "setting": "Escherichia coli", "result": ">128", "unit": "µg/mL"},
      {"measurement": "MIC Escherichia coli (GC 4560)", "setting": "Escherichia coli", "result": 4, "unit": "µg/mL"},
      {"measurement": "MIC Staphylococcus aureus (ATCC 29213)", "setting": "Staphylococcus sp.; strain ATCC 29213", "result": 8, "unit": "µg/mL"},
      {"measurement": "MIC Staphylococcus aureus (GC 1131)", "setting": "Staphylococcus sp.; strain GC 1131", "result": 16, "unit": "µg/mL"},
      {"measurement": "MIC Staphylococcus aureus (GC 3051)", "setting": "Staphylococcus sp.; strain GC 3051", "result": 8, "unit": "µg/mL"},
      {"measurement": "MIC Staphylococcus aureus (GC 3053)", "setting": "Staphylococcus sp.; strain GC 3053", "result": 16, "unit": "µg/mL"},
      {"measurement": "MIC Staphylococcus aureus (GC 4541)", "setting": "Staphylococcus sp.; strain GC 4541", "result": 8, "unit": "µg/mL"},
      {"measurement": "MIC Staphylococcus aureus (GC 4542)", "setting": "Staphylococcus sp.; strain GC 4542", "result": 16, "unit": "µg/mL"},
      {"measurement": "MIC Staphylococcus aureus-SMITH (GC 4543)", "setting": "Staphylococcus sp.; strain GC 4543", "result": 8, "unit": "µg/mL"},
      {"measurement": "MIC Staphylococcus aureus (GC 4544)", "setting": "Staphylococcus sp.; strain GC 4544", "result": 16, "unit": "µg/mL"},
      {"measurement": "MIC Staphylococcus aureus (GC 4545)", "setting": "Staphylococcus sp.; strain GC 4545", "result": 8, "unit": "µg/mL"},
      {"measurement": "MIC Staphylococcus haemolyticus (GC 4546)", "setting": "Staphylococcus sp.; strain GC 4546", "result": 4, "unit": "µg/mL"},
      {"measurement": "MIC Coagulase Negative Staphylococcus (GC 4547)", "setting": "Staphylococcus sp.; strain GC 4547", "result": 4, "unit": "µg/mL"},
      {"measurement": "MIC Coagulase Negative Staphylococcus (GC 4548)", "setting": "Staphylococcus sp.; strain GC 4548", "result": 4, "unit": "µg/mL"},
      {"measurement": "MIC Coagulase Negative Staphylococcus (GC 4549)", "setting": "Staphylococcus sp.; strain GC 4549", "result": 4, "unit": "µg/mL"},
      {"measurement": "MIC Coagulase Negative Staphylococcus (GC 4551)", "setting": "Staphylococcus sp.; strain GC 4551", "result": 8, "unit": "µg/mL"},
      {"measurement": "MIC Enterococcus avium (GC 4558)", "setting": "Enterococcus sp.; Enterococcus avium (GC 4558)", "result": 4, "unit": "µg/mL"},
      {"measurement": "MIC Enterococcus faecalis (ATCC 29212)", "setting": "Enterococcus sp.; Enterococcus faecalis (ATCC 29212)", "result": 16, "unit": "µg/mL"},
      {"measurement": "MIC Enterococcus faecalis (GC 4552)", "setting": "Enterococcus sp.; Enterococcus faecalis (GC 4552)", "result": 16, "unit": "µg/mL"},
      {"measurement": "MIC Enterococcus faecalis (GC 4553)", "setting": "Enterococcus sp.; Enterococcus faecalis (GC 4553)", "result": 8, "unit": "µg/mL"},
      {"measurement": "MIC Enterococcus faecalis (GC 4554)", "setting": "Enterococcus sp.; Enterococcus faecalis (GC 4554)", "result": 32, "unit": "µg/mL"},
      {"measurement": "MIC Enterococcus faecalis (GC 6189)", "setting": "Enterococcus sp.; Enterococcus faecalis (GC 6189)", "result": 16, "unit": "µg/mL"},
      {"measurement": "MIC Enterococcus faecium (GC 2243)", "setting": "Enterococcus sp.; Enterococcus faecium (GC 2243)", "result": 8, "unit": "µg/mL"},
      {"measurement": "MIC Enterococcus faecium (GC 4556)", "setting": "Enterococcus sp.; Enterococcus faecium (GC 4556)", "result": 16, "unit": "µg/mL"},
      {"measurement": "MIC Enterococcus faecium (GC 4557)", "setting": "Enterococcus sp.; Enterococcus faecium (GC 4557)", "result": 2, "unit": "µg/mL"},
      {"measurement": "MIC Enterococcus avium (GC 4558)", "setting": "Enterococcus sp.", "result": 4, "unit": "µg/mL"},
      {"measurement": "MIC Enterococcus faecalis (ATCC 29212)", "setting": "Enterococcus sp.", "result": 16, "unit": "µg/mL"},
      {"measurement": "MIC Enterococcus faecalis (GC 2242)", "setting": "Enterococcus sp.", "result": 16, "unit": "µg/mL"},
      {"measurement": "MIC Enterococcus faecalis (GC 2691)", "setting": "Enterococcus sp.", "result": 16, "unit": "µg/mL"},
      {"measurement": "MIC Enterococcus faecalis (GC 3059)", "setting": "Enterococcus sp.", "result": 16, "unit": "µg/mL"},
      {"measurement": "MIC Enterococcus faecalis (GC 4552)", "setting": "Enterococcus sp.", "result": 16, "unit": "µg/mL"},
      {"measurement": "MIC Enterococcus faecalis (GC 4553)", "setting": "Enterococcus sp.", "result": 8, "unit": "µg/mL"},
      {"measurement": "MIC Enterococcus faecalis (GC 4554)", "setting": "Enterococcus sp.", "result": 32, "unit": "µg/mL"},
      {"measurement": "MIC Enterococcus faecalis (GC 6189)", "setting": "Enterococcus sp.", "result": 16, "unit": "µg/mL"},
      {"measurement": "MIC Enterococcus faecium (GC 2243)", "setting": "Enterococcus sp.", "result": 8, "unit": "µg/mL"},
      {"measurement": "MIC Enterococcus faecium (GC 4556)", "setting": "Enterococcus sp.", "result": 16, "unit": "µg/mL"},
      {"measurement": "MIC Enterococcus faecium (GC 4557)", "setting": "Enterococcus sp.", "result": 2, "unit": "µg/mL"},
      {"measurement": "MIC Enterococcus faecalis (GC 2242)", "setting": "Enterococcus sp.; strain GC 2242", "result": 16, "unit": "µg/mL"},
      {"measurement": "MIC Enterococcus faecalis (GC 2691)", "setting": "Enterococcus sp.; strain GC 2691", "result": 16, "unit": "µg/mL"},
      {"measurement": "MIC Enterococcus faecalis (GC 3059)", "setting": "Enterococcus sp.; strain GC 3059", "result": 16, "unit": "µg/mL"},
      {"measurement": "MIC Streptococcus agalactiae (GC 4564)", "setting": "Streptococcus sp.", "result": 0.5, "unit": "µg/mL"},
      {"measurement": "MIC Streptococcus pneumoniae (ATCC 6301)", "setting": "Streptococcus sp.", "result": 2, "unit": "µg/mL"},
      {"measurement": "MIC Streptococcus pneumoniae (GC 1894)", "setting": "Streptococcus sp.", "result": 0.25, "unit": "µg/mL"},
      {"measurement": "MIC Streptococcus pneumoniae (GC 4565)", "setting": "Streptococcus sp.", "result": 2, "unit": "µg/mL"},
      {"measurement": "MIC Streptococcus pyogenes (GC 4563)", "setting": "Streptococcus sp.", "result": 1, "unit": "µg/mL"},
      {"measurement": "MIC Streptococcus pneumoniae (ATCC 6301)", "setting": "Streptococcus sp.; strain ATCC 6301", "result": 2, "unit": "µg/mL"},
      {"measurement": "MIC Streptococcus pneumoniae (GC 1894)", "setting": "Streptococcus sp.; strain GC 1894", "result": 0.25, "unit": "µg/mL"},
      {"measurement": "MIC Streptococcus pyogenes (GC 4563)", "setting": "Streptococcus sp.; strain GC 4563", "result": 1, "unit": "µg/mL"},
      {"measurement": "MIC Streptococcus agalactiae (GC 4564)", "setting": "Streptococcus sp.; strain GC 4564", "result": 0.5, "unit": "µg/mL"},
      {"measurement": "MIC Streptococcus pneumoniae (GC 4565)", "setting": "Streptococcus sp.; strain GC 4565", "result": 2, "unit": "µg/mL"}
    ]}
  ]
}
